# From patent US10450309B2, “Aryl sulfonamides as BLT1 antagonists” (Merck Sharp & Dohme Corp., priority 2015, dated 2019)
# Target: T1, human BLT1 receptor (Homo sapiens, UniProt Q15722)
# T1 construct: expressed in transfected cells; host or cells: HEK293
# Test: BLT-1 cAMP Assay
# Format: cell-based
# Conditions: antagonist mode; HEK293 cells recombinantly expressing human BLT1; forskolin 4 μM and LTB4 2 nM
# Description: The ability of compounds to antagonize the human BLT1 receptor was determined using a kit to measure changes in intracellular cyclic AMP levels (cAMP dynamic assay kit, Cisbio Cat. No. 62AM4PEC). HEK293 cells recombinantly expressing human BLT1, previously frozen in Recovery Medium (Life Technologies, Cat. No. 12648-010) were thawed and diluted into assay medium (HBSS (Hyclone SH 30268.01), 20 mM HEPES (Gibco 15630-106), 800 μM IBMX (Sigma 15879), 0.1% DTPA BSA (Perkin Elmer CR84-100)). The cell suspension was centrifuged at 200×g for 10 min and then resuspended in fresh assay medium to a density of 2.5×10^5 cells/mL. A Labcyte Echo 550 acoustic dispenser was used to transfer 25 nL of test compound dissolved in DMSO into the wells of a dry 384-well plate (Greiner 784075). All subsequent liquid additions were performed using a BIORAPTR (FRD; Beckman Coulter). Next, 5 μL of cell suspension was added and incubated for 20 min. at 37° C. and 5% CO2 in a humidified plastic tray. To test for agonist activity 5 μL of assay buffer containing forskolin (Sigma F-6886. 4 μM for BLT1) was added and incubated for 30 minutes at 37° C. and 5% CO2 in a humidified plastic tray. To test for antagonist activity 5 μL of assay buffer containing forskolin (Sigma F-6886. 4 μM for BLT1) and either LTB4 (Sigma Aldrich L0517; 2 nM BLT1) was added and incubated for 30 minutes at 37° C. and 5% CO2 in a humidified plastic tray.
# The levels of cAMP were detected using the CisBio kit following the manufacturer's instructions: cAMP-d2 vial was reconstituted with distilled water and then diluted accordingly with conjugate & lysis buffer. 5 μL of cAMP-d2 working solution was added to all of the wells of the assay plate. cAMP-Cryptate vial was reconstituted with distilled water and then diluted accordingly with conjugate & lysis buffer. 5 μL of cAMP-Cryptate working solution were added to the assay plate. The assay plate was shaken for 3 minutes and incubated at room temperature for 45 minutes, then read on Perkin Elmer Envision. cAMP standard curve and fit data were plotted using a 4 parameter dose response curve fitting algorithm to fit curve. A 4-parameter curve fit (Max, min, log EC50 and slope) was used to transform fluorescent 665 nm/615 nm ratio signal to cAMP concentration. After normalization to treated and untreated controls, the percent effect of signal at each compound concentration was calculated. The plot of percent effect versus the log of compound concentration was fit with a 4-parameter concentration response equation to calculate EC50 values. Compound concentrations tested were 10 000, 3 333, 1 111, 370.4, 123.4, 41.2, 13.7, 4.6, 1.5 and 0.5 nM with 0.25% residual DMSO.
# T1 sequence (Q15722 whole entry): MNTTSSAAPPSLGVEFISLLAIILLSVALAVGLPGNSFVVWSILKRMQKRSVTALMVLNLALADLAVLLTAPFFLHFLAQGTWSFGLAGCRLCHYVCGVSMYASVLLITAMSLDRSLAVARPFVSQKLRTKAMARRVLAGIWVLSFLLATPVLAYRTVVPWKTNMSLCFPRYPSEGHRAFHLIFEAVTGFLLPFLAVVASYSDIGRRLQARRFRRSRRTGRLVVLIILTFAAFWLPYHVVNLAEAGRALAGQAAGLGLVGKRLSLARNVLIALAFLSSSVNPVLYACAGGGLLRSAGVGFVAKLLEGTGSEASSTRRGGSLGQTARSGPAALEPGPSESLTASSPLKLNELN
row,EC50,Compound
1,16 nM,"O=S(=O)(Nc1ccccc1-c1ccc2c(c1)OC[C@@H](Cc1ccc(-c3nccs3)cn1)[C@@H]2O)C(F)(F)F (single isomer, unassigned) [Example 11, 1,1,1-Trifluoro-N-(2-((3,4-trans)-4-hydroxy-3-((5-(thiazol-2-yl)pyridin-2-yl)methyl)chroman-7-yl)phenyl)methanesulfonamide]"
2,4 nM,"O=S(=O)(Nc1ccccc1-c1ccc2c(c1)OC[C@@H](Cc1ccc(-c3cscn3)cn1)[C@@H]2O)C(F)(F)F (single isomer, unassigned) [Example 12, 1,1,1-Trifluoro-N-(2-((3,4-trans)-4-hydroxy-3-((5-(thiazol-4-yl)pyridin-2-yl)methyl)chroman-7-yl)phenyl)methanesulfonamide]"
3,4 nM,"O=S(=O)(Nc1ccc(F)cc1-c1ccc2c(c1)OC[C@H](Cc1ccc(-c3cncs3)cn1)[C@H]2O)C(F)(F)F (single isomer, unassigned) [Example 13, 1,1,1-trifluoro-N-{4-fluoro-2-[(3S,4R or 3R,4S)-4-hydroxy-3-{[5-(1,3-thiazol-5-yl)pyridin-2-yl]methyl}-3,4-dihydro-2H-chromen-7-yl]phenyl}methane-sulfonamide]"
4,31 nM,"O=S(=O)(Nc1ccc(F)cc1-c1ccc2c(c1)OC[C@@H](Cc1ccc(-c3cncs3)cn1)[C@@H]2O)C(F)(F)F (single isomer, unassigned) [Example 14, 1,1,1-trifluoro-N-{4-fluoro-2-[(3R,4S or 3S,4R)-4-hydroxy-3-{[5-(1,3-thiazol-5-yl)pyridin-2-yl]methyl}-3,4-dihydro-2H-chromen-7-yl]phenyl}methane-sulfonamide]"

# The next lines start with the compound.
row,Compound,EC50
1,"1,1,1-Trifluoro-N-(2-((3R,4S or 3S,4R)-4-hydroxy-3-((5-(5-methylthiazol-2-yl)pyridin-2-yl)methyl)chroman-7-yl)phenyl)methanesulfonamide [Example 6]",187 nM
2,"1,1,1-Trifluoro-N-(2-((3S,4R or 3R,4S)-4-hydroxy-3-((5-(5-methylthiazol-2-yl)pyridin-2-yl)methyl)chroman-7-yl)phenyl)methanesulfonamide [Example 7]",4 nM
3,"O=S(=O)(Nc1ccc(F)cc1-c1ccc2c(c1)OC[C@H](Cc1ccc(-c3cncs3)cn1)[C@H]2O)C(F)(F)F (racemic) [Example 8, 1,1,1-trifluoro-N-{4-fluoro-2-[(rac-trans) 4-hydroxy-3-{[5-(1,3-thiazol-5-yl)pyridin-2-yl]methyl}-3,4-dihydro-2H-chromen-7-yl]phenyl}methanesulfonamide]",24 nM
4,"O=S(=O)(Nc1ccccc1-c1ccc2c(c1)OC[C@@H](Cc1ccc(-c3cncs3)cn1)[C@@H]2O)C(F)(F)F (single isomer, unassigned) [Example 1, 1,1,1-Trifluoro-N-(2-((3R,4S or 3S,4R)-4-hydroxy-3-((5-(thiazol-5-yl)pyridin-2-yl)methyl)chroman-7-yl)phenyl)methanesulfonamide]",82 nM
5,"O=S(=O)(Nc1ccccc1-c1ccc2c(c1)OC[C@H](Cc1ccc(-c3cncs3)cn1)[C@H]2O)C(F)(F)F (single isomer, unassigned) [Example 2, 1,1,1-Trifluoro-N-(2-((3S,4R or 3R,4S)-4-hydroxy-3-((5-(thiazol-5-yl)pyridin-2-yl)methyl)chroman-7-yl)phenyl)methanesulfonamide]",8 nM
6,"Cn1cc(-c2ccc(C[C@H]3COc4cc(-c5ccccc5NS(=O)(=O)C(F)(F)F)ccc4[C@@H]3O)nc2)cn1 (single isomer, unassigned) [Example 3, 1,1,1-Trifluoro-N-(2-((3S,4R or 3R,4S)-4-hydroxy-3-((5-(1-methyl-1H-pyrazol-4-yl)pyridin-2-yl)methyl)chroman-7-yl)phenyl)methanesulfonamide]",5 nM
7,"Cn1cc(-c2ccc(C[C@@H]3COc4cc(-c5ccccc5NS(=O)(=O)C(F)(F)F)ccc4[C@H]3O)nc2)cn1 (single isomer, unassigned) [Example 4, 1,1,1-Trifluoro-N-(2-((3R,4S or 3S,4R)-4-hydroxy-3-((5-(1-methyl-1H-pyrazol-4-yl)pyridin-2-yl)methyl)chroman-7-yl)phenyl)methanesulfonamide]",140 nM
8,"Cn1nccc1-c1ccc(C[C@@H]2COc3cc(-c4ccccc4NS(=O)(=O)C(F)(F)F)ccc3[C@H]2O)nc1 (single isomer, unassigned) [Example 5, 1,1,1-Trifluoro-N-(2-((3,4-trans)-4-hydroxy-3-((5-(1-methyl-1H-pyrazol-5-yl)pyridin-2-yl)methyl)chroman-7-yl)phenyl)methanesulfonamide]",294 nM
9,"O=S(=O)(Nc1ccccc1-c1ccc2c(c1)OC[C@@H](Cc1ccc(-c3cscn3)cn1)[C@@H]2O)C(F)(F)F (single isomer, unassigned) [Example 9, 1,1,1-Trifluoro-N-(2-((3,4-trans)-4-hydroxy-3-((5-(thiazol-4-yl)pyridin-2-yl)methyl)chroman-7-yl)phenyl)methanesulfonamide]",107 nM
10,"O=S(=O)(Nc1ccccc1-c1ccc2c(c1)OC[C@@H](Cc1ccc(-c3nccs3)cn1)[C@@H]2O)C(F)(F)F (single isomer, unassigned) [Example 10, 1,1,1-Trifluoro-N-(2-((3,4-trans)-4-hydroxy-3-((5-(thiazol-2-yl)pyridin-2-yl)methyl)chroman-7-yl)phenyl)methanesulfonamide]",20 nM
